Tested on: cerebrovascular morphology
Test: Cerebrovascular morphology by CD31 staining after ALPL inhibitor treatment
Assay type: in vivo
Details: aged (22 m.o.) mice, vs vehicle
Text: FIGS. 14A-14D are graphs illustrating flow cytometry quantification of brain endothelial cell uptake of plasma from young mice (3 m.o.) (FIG. 14A), plasma from aged mice (22 m.o.) (FIG. 14B), human holo-transferrin (hu-Tf) from aged mice (FIG. 14C), or transferrin receptor antibody (TfR Ab) from aged mice (FIG. 14D) treated with vehicle (grey) or anti-ALPL (green) via IP injections twice daily for three days, as assessed by % of BECs that are tracer^+ and relative MFI of tracer^+ BECs (for plasma, n=4; for hu-Tf, n=6 vehicle, n=5 anti-ALPL; for TfR Ab, n=9, two-sided t-test, mean+/−s.e.m.). Tracer refers to plasma, hu-Tf, or TfR Ab. FIG. 14E includes representative images of hu-Tf^+ neurons detected in the cortex of mice treated with ALPL inhibitor. Scale bar=40 microns. […] FIG. 14H includes graphs illustrating flow cytometry quantification of brain endothelial cell and brain parenchymal cell uptake of 3 kDa dextran tracer, which probes for disruptions in paracellular permeability, in young mice (3 m.o.) and aged mice (22 m.o.) (n=6 vehicle, n=5 anti-ALPL, two-sided t-test, mean+/−s.e.m.).
Brain tissue processing, immunohistochemistry, and immunofluorescence experiments were performed as described previously12,13. […] National Institutes of Health ImageJ software was used to quantify the percentage of vasculature (CD31 or AQP4) covered by CD13, AQP4, or ALPL, as described previously63. […]

- vascular morphology: did not perturb
SMILES: COc1ccc(OC)c(S(=O)(=O)Nc2cnc3ccccc3c2)c1 [ALPL inhibitor, 2,5-Dimethoxy-N-(quinolin-3-yl)benzenesulfonamide]
